Data reported in patent US20190144375A1, “NOVEL CARBOCYCLIC COMPOUNDS AS ROR GAMMA MODULATORS” (Glenmark Pharmaceuticals S.A., priority 2015, published 2019).

Molecular target: T1, GST-tagged ROR gamma ligand binding domain (LBD) (Homo sapiens, UniProt P51449)
T1 construct: purchased Invitrogen
T1 sequence (P51449 269-508 limits assumed): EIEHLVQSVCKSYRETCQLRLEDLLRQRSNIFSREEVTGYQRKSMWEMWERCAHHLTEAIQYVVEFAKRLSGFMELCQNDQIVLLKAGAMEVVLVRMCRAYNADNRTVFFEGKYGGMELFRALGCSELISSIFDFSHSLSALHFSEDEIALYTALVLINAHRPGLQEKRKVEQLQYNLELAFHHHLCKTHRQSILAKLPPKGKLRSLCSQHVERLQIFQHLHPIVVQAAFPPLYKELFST
Experiment: TR-FRET assay for ROR gamma (LanthaScreen, Fluorescein-D22 co-activator peptide recruitment)
Type: biochemical
Details: for inhibition at 1 µM: 1 μM compound; for inhibition at 1 µM / inhibition at 10 µM: TR-FRET ratio 520/495; for inhibition at 10 µM: 10 μM compound; for IC50: dose response curve, class symbols
Excerpt: The compounds described herein were screened for ROR gamma modulator activity using the TR-FRET assay (LanthaScreen™ available from Invitrogen of Carlsbad, Calif.) as described in JBC 2011, 286, 26: 22707-10; and Drug Metabolism and Disposition 2009, 37, 10: 2069-78.
The assay is based on the principle that binding of the agonist to the ROR gamma causes a conformational change around helix 12 in the ligand binding domain, resulting in higher affinity for the co-activator peptide. ROR gamma being constitutively active, the Fluorescein-D22 co-activator peptide used in the assay is recruited in the absence of a ligand. Binding of the co-activator peptide, causes an increase in the TR-FRET signal while binding of an antagonist decreases the recruitment of the co-activator peptide, causing a decrease in the TR-FRET signal compared to control with no compound. The assay was performed using a two-step procedure, pre-incubation step with the compound followed by the detection step on addition of the anti-GST tagged terbium (Tb) and fluorescein tagged fluorophores as the acceptor.
Test compounds or reference compounds such as T0901317 (Calbiochem) were dissolved in dimethylsulfoxide (DMSO) to prepare 10.0 mM stock solutions and diluted to the desired concentration. The final concentration of DMSO in the reaction was 4% (v/v). The assay mixture was prepared by mixing 10 nM of the GST-tagged ROR gamma ligand binding domain (LBD) in the assay buffer containing 25 mM HEPES, 100 mM NaCl, 5 mM DTT and 0.01% BSA with or without the desired concentration of the compound. The reaction was incubated at 22° C. for 1 hour. The pre-incubation step was terminated by addition of the detection mixture containing 300 nM Fluorescein-D22 co-activator peptide and 10 nM lantha screen Tb-anti GST antibody into the reaction mixture. After shaking for 5 minutes the reaction was further incubated for 1 hour at room temperature and read […] on an Infinite F500 reader as per the kit instructions (Invitrogen). The inhibition of test compound was calculated based on the TR-FRET ratio of 520/495. The activity was calculated as a percent of control reaction. IC50 values were calculated from dose response curve by nonlinear regression analysis using GraphPad Prism software.
Percentage inhibition at concentrations of 1.0 μM and 10.0 μM are given in the table along with IC50 (nM) details for selected examples.

SMILES	inhibition at 1 µM [%]	inhibition at 10 µM [%]	IC50 [nM]
CC(O)C(F)(F)c1ccc(CC(=O)Nc2ccc(C(=O)N(C)c3cc(C4CC4)ccc3Cl)cc2)cc1 (stereo not drawn) [Example 40]	90.8	94.3	< 50
Cc1cc(C)c(N(C)C(=O)c2ccc(NC(=O)Cc3ccc(C(F)(F)C(C)O)cc3)cc2)c(Cl)c1 (stereo not drawn) [Example 33]	86.8	90.2	< 50
CC(O)C(F)(F)c1ccc(CC(=O)Nc2ccc(C(=O)N(C)c3cc(Cl)ccc3Cl)cc2)cc1 (stereo not drawn) [Example 5, N-(2,5-Dichlorophenyl)-4-(2-(4-(1,1-difluoro-2-hydroxypropyl)phenyl)acetamido)-N-methylbenzamide]	87.6	94.3	< 50
CC(O)C(F)(F)c1ccc(CC(=O)Nc2ccc(C(=O)N(C)c3ccccc3Cl)cc2)cc1 (stereo not drawn) [Example 15]	85.5	92.8	< 50
CC(O)C(F)(F)c1ccc(CC(=O)Nc2ccc(C(=O)N(C)c3ccc(C4CC4)cc3Cl)cc2)cc1 (stereo not drawn) [Example 38]	92.6	94.8	< 50
Cc1ccc(N(C)C(=O)c2ccc(NC(=O)Cc3ccc(C(F)(F)[C@H](C)O)cc3)cc2)c(Cl)c1 [Example 30, (S)—N-(2-Chloro-4-methylphenyl)-4-(2-(4-(1,1-difluoro-2-hydroxypropyl)phenyl)acetamido)-N-methylbenzamide]	85.5	88.7	< 50
